For assay [1], the system named is CCRF-CEM. Put plainly: Antiproliferative activity against human CCRF-CEM cells assessed as cell growth inhibition at 10 uM by SRB assay. It counts as functional, cell-based.
For assay [2], the system named is HL-60. Nature of the assay: Antiproliferative activity against human HL-60 cells assessed as cell growth inhibition at 10 uM by SRB assay. It counts as functional, cell-based. A general note: Sulforhodamine B stains cellular protein and so reports cell mass.
For assay [3], the system named is K562. Put plainly: Antiproliferative activity against human K562 cells assessed as cell growth inhibition at 10 uM by SRB assay. In kind it is functional, cell-based.
In assay [4] the test system is MOLT-4. Put plainly: Antiproliferative activity against human MOLT-4 cells assessed as cell growth inhibition at 10 uM by SRB assay. In kind it is functional, cell-based.
For assay [5], the system named is RPMI-8226. Nature of the assay: Antiproliferative activity against human RPMI-8226 cells assessed as cell growth inhibition at 10 uM by SRB assay. In kind it is functional, cell-based.
Assay [6] deals with SR. Put plainly: Antiproliferative activity against human SR cells assessed as cell growth inhibition at 10 uM by SRB assay. In kind it is functional, cell-based.
The subject of assay [7] is EKVX. Put plainly: Antiproliferative activity against human EKVX cells assessed as cell growth inhibition at 10 uM by SRB assay. It counts as functional.
Assay [8] relates to HOP-92. Nature of the assay: Antiproliferative activity against human HOP-92 cells assessed as cell growth inhibition at 10 uM by SRB assay. It counts as functional, cell-based.
Assay [9] has as its system NCI-H226. Nature of the assay: Antiproliferative activity against human NCI-H226 cells assessed as cell growth inhibition at 10 uM by SRB assay. In kind it is functional.
In assay [10] the test system is NCI-H23. Nature of the assay: Antiproliferative activity against human NCI-H23 cells assessed as cell growth inhibition at 10 uM by SRB assay. It counts as functional.
The test system of assay [11] is NCI-H522. Nature of the assay: Antiproliferative activity against human NCI-H522 cells assessed as cell growth inhibition at 10 uM by SRB assay. In kind it is functional, cell-based.
For assay [12], the system named is SF-295. Nature of the assay: Antiproliferative activity against human SF-295 cells assessed as cell growth inhibition at 10 uM by SRB assay. In kind it is functional, cell-based.
Assay [13] has as its system SK-MEL-2. Nature of the assay: Antiproliferative activity against human SK-MEL-2 cells assessed as cell growth inhibition at 10 uM by SRB assay relative to control. In kind it is functional. The following applies: Homo sapiens, SK-MEL-2, dose 10 µM.
Assay [14] has as its system UO-31. Put plainly: Antiproliferative activity against human UO-31 cells assessed as inhibition of cell growth at 10 uM by SRB assay relative to control. In kind it is functional.
The test system of assay [15] is Hs-578T. Nature of the assay: Antiproliferative activity against human Hs-578T cells assessed as inhibition of cell growth at 10 uM by SRB assay. It counts as functional, cell-based.
Assay [16] concerns A549. Nature of the assay: Antiproliferative activity against human A549 cells assessed as cell growth inhibition at 10 uM by SRB assay. In kind it is functional, cell-based.
Assay [17] deals with HOP-62. Nature of the assay: Antiproliferative activity against human HOP-62 cells assessed as cell growth inhibition at 10 uM by SRB assay. In kind it is functional, cell-based.
Assay [18] relates to NCI-H322M. Nature of the assay: Antiproliferative activity against human NCI-H322M cells assessed as cell growth inhibition at 10 uM by SRB assay. In kind it is functional, cell-based.
The subject of assay [19] is NCI-H460. Put plainly: Antiproliferative activity against human NCI-H460 cells assessed as cell growth inhibition at 10 uM by SRB assay. In kind it is functional, cell-based.

Each structure is given as a SMILES string. Active and inactive are the calls of the source. The calls are words filed in the database; no cut-off is given here.

For orientation: inhibition means the drop in the measured response relative to a control, in per cent.

Turning to `COC(=O)c1ccc(C(=O)Nc2cccc(-c3cc(=O)c4c(OC)c(OC)c(OC)cc4o3)c2)cc1`, the inhibition entry in assay [1], in assay [2], in [3], in assay [4], in [5] and in assay [6] was “Active” in each case. In addition, the inhibition entry in [8], in [11], in assay [12], in assay [14] and in assay [15] was “Active” throughout. Besides, the inhibition at 10 µM was less than 50% in assay [7], less than 50% in assay [9], less than 50% in assay [10] and no more than 46% in assay [13].

On to `COc1cc2oc(-c3ccc(NC(=O)c4cccc(C#N)c4)cc3)cc(=O)c2c(OC)c1OC`, for which the inhibition result in [1], in assay [2], in assay [3], in assay [4], in assay [5] and in assay [6] was “Active” each time. Besides, the inhibition result in [8], in assay [11], in assay [12], in assay [14] and in [15] was “Active” each time. The inhibition at 10 µM in assay [7], in assay [9] and in [10] was less than 50% throughout.

Turning to `COc1cc2oc(-c3ccc(NC(=O)c4ccc(Br)cc4)cc3)cc(=O)c2c(OC)c1OC`, the inhibition result in assay [1], in assay [2], in [3], in assay [4], in assay [5] and in [6] was “inactive” each time. For the same molecule, the inhibition at 10 µM in assay [7], in assay [9] and in assay [10] was less than 50% throughout. Also, the inhibition result in [8], in assay [11], in [12], in assay [14] and in [15] was “Active” throughout.

For the molecule `COc1cc2oc(-c3cccc(NC(=O)c4ccccc4Br)c3)cc(=O)c2c(OC)c1OC`, the inhibition entry in [1], in assay [2], in assay [3], in [4], in [5] and in assay [6] was “Active” in each case. In addition, the inhibition entry in assay [8], in assay [11], in [12], in assay [14] and in assay [15] was “Active” in each case. Further, the inhibition at 10 µM in assay [7] was less than 50%; in assay [9] it was less than 50%; in assay [10] it was less than 50%; in assay [13], no more than 46%.

As for `COc1cc2oc(-c3ccc(NC(=O)c4ccc(C#N)cc4)cc3)cc(=O)c2c(OC)c1OC`, the inhibition at 10 µM in assay [7], in [9] and in assay [10] was less than 50% throughout. In addition, the inhibition result in assay [8], in [11], in assay [12], in [14] and in assay [15] was “Active” throughout.

Turning to `COc1cc2oc(-c3ccc(NC(=O)c4ccc([N+](=O)[O-])cc4)cc3)cc(=O)c2c(OC)c1OC`, the inhibition at 10 µM in assay [7], in assay [9] and in assay [10] was less than 50% throughout. For the same molecule, the inhibition result in [8], in assay [11], in assay [12], in assay [14] and in assay [15] was “Active” each time.

For `COc1cc2oc(-c3ccc(NC(=O)c4cccc(Br)c4)cc3)cc(=O)c2c(OC)c1OC`, the inhibition entry in assay [1], in [2], in assay [3], in assay [4], in assay [5] and in assay [6] was “Active” throughout. The inhibition entry in [8], in assay [11], in [12], in assay [14] and in assay [15] was “Active” in each case. The inhibition at 10 µM in assay [7], in [9] and in assay [10] was less than 50% each time.

As for `COc1cc2oc(-c3cccc(NC(=O)c4ccc(C#N)cc4)c3)cc(=O)c2c(OC)c1OC`, the inhibition result in assay [1], in assay [2], in [3], in assay [4], in assay [5] and in assay [6] was “Active” throughout. In addition, the inhibition entry in [16], in assay [7], in assay [17], in [8], in [9] and in assay [10] was “Active” in each case. Further, the inhibition result in [18], in assay [19], in [11], in assay [12], in assay [14] and in assay [15] was “Active” throughout. Further, the inhibition at 10 µM is less than 50% in [7], less than 50% in assay [9], less than 50% in [10] and no more than 46% in assay [13].

Consider `COc1cc2oc(-c3cccc(NC(=O)c4ccc(C(F)(F)F)cc4)c3)cc(=O)c2c(OC)c1OC`, for which the inhibition entry in assay [1], in assay [2], in assay [3], in assay [4], in [5] and in [6] was “Active” each time. Moreover, the inhibition entry in assay [8], in assay [11], in assay [12], in assay [14] and in assay [15] was “Active” throughout. For the same molecule, the inhibition at 10 µM in [7] is less than 50%; in assay [9], less than 50%; in [10], less than 50%; in [13], no more than 46%.

On to `COc1cc2oc(-c3cccc(C(=O)Nc4ccc(C#N)cc4)c3)cc(=O)c2c(OC)c1OC`, for which the inhibition entry in [16], in assay [7], in assay [17], in [8], in assay [9] and in assay [10] was “Active” throughout. Besides, the inhibition entry in assay [18], in assay [19] and in [11] was “Active” in each case.

On to `COC(=O)c1ccc(C(=O)Nc2ccc(-c3cc(=O)c4c(OC)c(OC)c(OC)cc4o3)cc2)cc1`, for which the inhibition at 10 µM in assay [7], in assay [9] and in assay [10] was less than 50% in each case. Also, the inhibition result in assay [8], in [11], in assay [12], in assay [14] and in assay [15] was “Active” throughout.

`COc1cc2oc(-c3cccc(NC(=O)c4cccc(C#N)c4)c3)cc(=O)c2c(OC)c1OC`: the inhibition entry in assay [1], in [2], in assay [3], in [4], in assay [5] and in [6] was “Active” throughout. The inhibition entry in assay [8], in [11], in assay [12], in assay [14] and in [15] was “Active” throughout. Besides, the inhibition at 10 µM is less than 50% in [7], less than 50% in assay [9], less than 50% in assay [10] and no more than 46% in [13].
